Where “and” joins values, the source holds several entries; their conditions need not be identical. Equal values may be shown once.
Legend:
[1] = Acute toxicity in mice after a single i.v. administration; assay type: in vivo; conditions: mouse, in vivo, iv, single i.v., mg PQ diphosphate equivalent/kg; for MTD: weight loss not exceeding 5% during 5 days, read-out: Maximum tolerated dose (MTD)
Description: (§1) The acute toxicity in terms of a single administered dose is determined on female Swiss OF1 mice weighing 22 to 25 g. A series of dilutions of each compound is injected intravenously into groups of 10 mice (0.1 ml per 10 g of weight).
(§2) The lethal dose for 50% of mice (LD50) is determined by linear regression of the logits of the percentage of surviving animals as a function of the logarithm of the dose injected (in mg PQ diphosphate equivalent/kg) (Logit Weighted Transformation, Berkson J., 1953; J. Am. Stat. Assoc. 48, 565-599).
(§3) ^a : The products are administered i.v. to groups of 10 female Swiss
(§4) ^b : Maximum tolerated dose (MTD), defined as the highest dose
(§5) The acute toxicity in terms of a single administered dose is determined under the same conditions and according the protocol of Example 3.

female Swiss OF1 mice = test: as above; assay type: in vivo; conditions: for Fold less toxic than PQ: mice, i.v.; for LD50 / Maximum tolerated dose (MTD): single i.v., mg PQ diphosphate equivalent/kg; for Maximum tolerated dose (MTD): weight loss not exceeding 5% during 5 days
Description: as §1, §2, §3, §4, §5

Plasmodium berghei [2] = test: Causal prophylactic activity on OF1 mice infected with Plasmodium berghei; assay type: in vivo, P. berghei (ANKA), in Swiss OF1 mice; conditions: for ED50 / ED100 / minimal effective dose: Plasmodium berghei, iv, 3 h; for ED50 / ED100 / minimal effective dose / CPD50, causal prophylactic dose curing 50% of the infected and treated animals / ED100, totally curative dose: single i.v. three hours after sporozoites, mg PQ diphosphate equivalent/kg; for ED50: read-out: CPD50, causal prophylactic dose curing 50% of the infected and treated animals; for ED100: read-out: ED100, totally curative dose; for minimal effective dose: read-out: Minimal effective dose (MED); for Activity relative to PQ, fold as active: model of malaria in mice; for CPD50, fold lower than for PQ: mouse, in vivo; for PQ index: ratio CPD50 of PQ/CPD50 of the compound
Description: Primaquine and its derivatives are tested in the model of malaria in rodents employing the infection of mice with Plasmodium berghei, the sporozoites originating from infected Anopheles stephensi mosquitoes. This model, developed by Most H., Herman R. & Schoenfeld C. (1967), Am. J. Trop. med. Hyg. 16, 572-575, enables the casual prophylatic (tissue schizonticidal) activity of new therapeutic compounds to be determined.
The procedure used is that derived from Most H. & Montuori W.A. (1975), Am. J. Trop. Med. Hyg. 24, 179-189. It involves the system P. berghei (ANKA)/Anopheles stephensi/Swiss OF1 mice. The ANKA strain of P. b. berghei is maintained cyclically on Anopheles stephensi. The Swiss OF1 strain mouse is especially sensitive to P. b. berghei, which produces an invariably fatal infection.
The legs, wings and abdomen are removed from female mosquitoes (80 to 100 individuals per preparation) and the latter are then homogenized at 4° C. in MEM medium (GIBCO) containing 10% of fetal calf serum using a glass Potter. The sporozoite suspension is then purified from the mosquito debris by two successive centrifugations (2 min at 50 g and 5 min at 200 g) and the collected supernatant is stored at 4° C. After counting in a Petroff-Hausser chamber, the number of parasites is adjusted by dilution with the same cold medium to a density of 2×10^5 sporozoites/ml.
The causal prophylactic activity of the compounds, that is to say the dose enabling 50% of the infected animals to be cured (CPD50) is obtained by analysis of the logits of the response (expressed as a % LTS) as a function of the dose (mg PQ/kg).
A volume of 0.5 ml of the suspension containing 10^5 sporozoites is injected i.v. into female Swiss OF1 mice weighing 20 to 25 g, used for the therapeutic tests. 1.2. Chemotherapeutic treatments
Groups of 20 to 25 mice, infected as described above, are treated with a single intravenous injection of primaquine diphosphate (PQ) or of its two derivatives in hydrochloride form, three hours after inoculation of the sporozoites. The volume injected is adjusted according to the weight of the mouse, on the basis of 0.25 ml for a weight of 25 g. The compounds are diluted in phosphatebuffered saline (PBS), pH 7.0, and the pH is adjusted to 7.0. Infected but untreated mice (5 per group), receive the buffer alone and serve to monitor the infectivity of the sporozoites.
The experimental mice are kept for a period of 50 days. The development of the parasitemia is followed by daily examination of blood smears stained for 60 min with 5% Giemsa in Sorensen buffer at pH 7.2, from day 5 up to day 15. The number of infected animals can thus be determined.
(§6) The animals infected using P. berchei sporozoites are treated three hours later with a single i.v. injection of the compounds. This test enables the casual prophylactic activity of the compounds, that is the dose enabling 50% of the infected animals to be cured (CPD50), to be defined. The dose is always expressed as mg of PQ diphosphate per kg.
as §6, with “berghei” for “berchei”

Plasmodium berghei [3] = test: Therapeutic index in mice; assay type: in vivo, P. berghei; conditions: mice, i.v.
Text: The therapeutic index is defined as the ratio of the toxicity, expressed as LD50, to the therapeutic activity, expressed as CPD50, in mice.
^b : The therapeutic index (TI) is the ratio of LD50 to […]

COc1cc(NC(C)CCCNC(=O)C[C@H](N)C(=O)O)c2ncccc2c1 (stereo partly drawn) [βASP-PQ, N-(β-L-aspartyl)-PQ]
LD50 [1]: 164 mg/kg | MTD [1]: 109 mg/kg | Fold less toxic than PQ (female Swiss OF1 mice): at least 5 -fold | LD50 (female Swiss OF1 mice): 164.4 (6.2) mg/kg and 164 (6.2) mg/kg | Maximum tolerated dose (MTD) (female Swiss OF1 mice): 109.1 (13.1) mg/kg | ED50 (Plasmodium berghei [2]): 11.2 mg/kg | ED100 (Plasmodium berghei [2]): 31 mg/kg | minimal effective dose (Plasmodium berghei [2]): 4.1 mg/kg | Activity relative to PQ, fold as active (Plasmodium berghei [2]): at least 1.6 -fold | CPD50, fold lower than for PQ (Plasmodium berghei [2]): 1.6 -fold | PQ index (Plasmodium berghei [2]): 1.68 | CPD50, causal prophylactic dose curing 50% of the infected and treated animals (Plasmodium berghei [2]): 11.2 (0.7) mg/kg | ED100, totally curative dose (Plasmodium berghei [2]): 30.6 (5.7) mg/kg | Therapeutic index, fold higher than that of PQ (Plasmodium berghei [3]): 8 -fold

COc1cc(NC(C)CCCNC(=O)[C@@H](N)CC(=O)O)c2ncccc2c1 (stereo partly drawn) [ASP-PQ, N-(α-L-aspartyl)-PQ]
LD50 [1]: 165 mg/kg | MTD [1]: 107 mg/kg | Fold less toxic than PQ (female Swiss OF1 mice): at least 5 -fold | LD50 (female Swiss OF1 mice): 165.5 (5.4) mg/kg and 165 (5.4) mg/kg | Maximum tolerated dose (MTD) (female Swiss OF1 mice): 107.2 (14.2) mg/kg | ED50 (Plasmodium berghei [2]): 11.6 mg/kg | ED100 (Plasmodium berghei [2]): 31 mg/kg | minimal effective dose (Plasmodium berghei [2]): 4.4 mg/kg | Activity relative to PQ, fold as active (Plasmodium berghei [2]): 1.6 -fold | CPD50, fold lower than for PQ (Plasmodium berghei [2]): 1.6 -fold | PQ index (Plasmodium berghei [2]): 1.62 | CPD50, causal prophylactic dose curing 50% of the infected and treated animals (Plasmodium berghei [2]): 11.6 (0.9) mg/kg | ED100, totally curative dose (Plasmodium berghei [2]): 31.1 (9.2) mg/kg | Therapeutic index, fold higher than that of PQ (Plasmodium berghei [3]): at least 8 -fold
